Laboratory results as given in patent publication US10597388B2, “Pyridazinone herbicides” (FMC CORPORATION, priority 2014, dated 2020).

What was measured:
Test in all cases: Test D controlled growth environment herbicide test, pre- and postemergence
Type in all cases: in vivo
[1] = test system: field violet (Viola arvensis)
Summary of the method: (§1)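 Species sown in silt loam and sprayed preemergence, or grown in peat-based medium to 2–18 cm (1- to 4-leaf stage) and sprayed postemergence, with compounds in non-phytotoxic solvent plus surfactant. Visual injury scored versus controls after 14–21 d in a controlled environment, 0 (no effect) to 100 (complete control).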

[2] = test system: galium (catchweed bedstraw, Galium aparine)
Summary of the method: as §1

[3] = test system: canarygrass (Phalaris minor)
Summary of the method: as §1

[4] = test system: speedwell (bird's-eye speedwell, Veronica persica)
Summary of the method: as §1

[5] = test system: radish, wild (wild radish, Raphanus raphanistrum)
Summary of the method: as §1

[6] = test system: deadnettle (henbit deadnettle, Lamium amplexicaule)
Summary of the method: as §1

[7] = test system: oilseed rape (Brassica napus)
Summary of the method: as §1

[8] = test system: bluegrass (annual bluegrass, Poa annua)
Summary of the method: as §1

[9] = test system: Russian thistle (Salsola kali)
Summary of the method: as §1

[10] = test system: barley, spring (spring barley, Hordeum vulgare)
Summary of the method: as §1

[11] = test system: kochia (Kochia scoparia)
Summary of the method: as §1

[12] = test system: ryegrass, Italian (Italian ryegrass, Lolium multiflorum)
Summary of the method: as §1

[13] = test system: buckwheat, wild (wild buckwheat, Polygonum convolvulus)
Summary of the method: as §1

[14] = Postemergence, 31 g ai/ha, scale 0 to 100 (0 no effect, 100 complete control)
[15] = Postemergence, 125 g ai/ha, visual rating on scale 0 (no effect) to 100 (complete control), 14 to 21 d
[16] = Postemergence, 250 g ai/ha, scale 0 to 100 (0 no effect, 100 complete control)
[17] = Preemergence, 62 g ai/ha, scale 0 to 100 (0 no effect, 100 complete control)
[18] = Preemergence, 125 g ai/ha, scale 0 to 100 (0 no effect, 100 complete control)
[19] = Preemergence, 250 g ai/ha, scale 0 to 100, 0 no effect, 100 complete control
[20] = postemergence, 62 g ai/ha, scale 0 to 100, 0 no effect, 100 complete control

`Cc1ccc2ccccc2c1-c1c(OC(=O)OC(C)C)c(C)nn(C)c1=O` [Compound 72] was tested, and the “Field Violet plant response rating” value [1, 14] was 90, the “Plant response rating, Field Violet” value [1, 15] was 95 and the “Plant response rating, Field Violet” value [1, 16] was 95. The “Plant response rating (scale of 0 to 100), Field Violet” value ([1]; Preemergence, 31 g ai/ha) was 10, the “Plant response rating, Field Violet” value [1, 17] was 75 and the “Plant response rating, Field Violet” value [1, 18] was 75. The “Plant response rating, Field Violet” value [1, 19] was 95, the “Plant response rating, Field Violet” value [1, 20] was 95 and the “Galium plant response rating” value [2, 14] was 95. For the same compound, the “Plant response rating, Galium” value [2, 15] was 100, the “Plant response rating, Galium” value [2, 16] was 100 and the “Plant response rating (scale of 0 to 100), Galium” value ([2]; Preemergence, 31 g ai/ha) was 20. For the same compound, the “Plant response rating, Galium” value [2, 17] was 60, the “Plant response rating, Galium” value [2, 18] was 70 and the “Plant response rating, Galium” value [2, 19] was 85. For the same compound, the “Plant response rating, Galium” value [2, 20] was 100, the “Canarygrass plant response rating” value [3, 14] was 40 and the “Plant response rating, Canarygrass” value [3, 15] was 80. For the same compound, the “Plant response rating, Canarygrass” value [3, 16] was 85, the “Plant response rating (scale of 0 to 100), Canarygrass” value ([3]; Preemergence, 31 g ai/ha) was 0 and the “Plant response rating, Canarygrass” value [3, 17] was 80. The “Plant response rating, Canarygrass” value [3, 18] was 85, the “Plant response rating, Canarygrass” value [3, 19] was 95 and the “Plant response rating, Canarygrass” value [3, 20] was 50. The “Speedwell plant response rating” value [4, 14] was 75, the “Plant response rating, Speedwell” value [4, 15] was 100 and the “Plant response rating, Speedwell” value [4, 16] was 80. For the same compound, the “Plant response rating (scale of 0 to 100), Speedwell” value ([4]; Preemergence, 31 g ai/ha) was 5, the “Plant response rating, Speedwell” value [4, 17] was 70 and the “Plant response rating, Speedwell” value [4, 19] was 100. For the same compound, the “Plant response rating, Speedwell” value [4, 20] was 75, the “Radish, Wild plant response rating” value [5, 14] was 75 and the “Plant response rating, Radish, Wild” value [5, 15] was 90. The “Plant response rating, Radish, Wild” value [5, 16] was 95, the “Plant response rating (scale of 0 to 100), Radish, Wild” value ([5]; Preemergence, 31 g ai/ha) was 0 and the “Plant response rating, Radish, Wild” value [5, 17] was 0. For the same compound, the “Plant response rating, Radish, Wild” value [5, 18] was 50, the “Plant response rating, Radish, Wild” value [5, 19] was 50 and the “Plant response rating, Radish, Wild” value [5, 20] was 80. For the same compound, the “Deadnettle plant response rating” value [6, 14] was 85, the “Plant response rating, Deadnettle” value [6, 15] was 100 and the “Plant response rating, Deadnettle” value [6, 16] was 100. The “Plant response rating (scale of 0 to 100), Deadnettle” value ([6]; Preemergence, 31 g ai/ha) was 5, the “Plant response rating, Deadnettle” value [6, 17] was 15 and the “Plant response rating, Deadnettle” value [6, 18] was 65. The “Plant response rating, Deadnettle” value [6, 19] was 70, the “Plant response rating, Deadnettle” value [6, 20] was 90 and the “Oilseed Rape plant response rating” value [7, 14] was 65. The “Plant response rating, Oilseed Rape” value [7, 15] was 80, the “Plant response rating, Oilseed Rape” value [7, 16] was 90 and the “Plant response rating (scale of 0 to 100), Oilseed Rape” value ([7]; Preemergence, 31 g ai/ha) was 5. For the same compound, the “Plant response rating, Oilseed Rape” value [7, 17] was 15, the “Plant response rating, Oilseed Rape” value [7, 18] was 15 and the “Plant response rating, Oilseed Rape” value [7, 19] was 25. The “Plant response rating, Oilseed Rape” value [7, 20] was 70, the “Bluegrass plant response rating” value [8, 14] was 20 and the “Plant response rating, Bluegrass” value [8, 15] was 40. For the same compound, the “Plant response rating, Bluegrass” value [8, 16] was 55, the “Plant response rating (scale of 0 to 100), Bluegrass” value ([8]; Preemergence, 31 g ai/ha) was 10 and the “Plant response rating, Bluegrass” value [8, 17] was 25. The “Plant response rating, Bluegrass” value [8, 18] was 25, the “Plant response rating, Bluegrass” value [8, 19] was 50 and the “Plant response rating, Bluegrass” value [8, 20] was 35. The “Russian Thistle plant response rating” value [9, 14] was 70, the “Plant response rating, Russian Thistle” value [9, 15] was 80 and the “Plant response rating, Russian Thistle” value [9, 16] was 85. For the same compound, the “Plant response rating (scale of 0 to 100), Russian Thistle” value ([9]; Preemergence, 31 g ai/ha) was 0, the “Plant response rating, Russian Thistle” value [9, 17] was 10 and the “Plant response rating, Russian Thistle” value [9, 18] was 15. For the same compound, the “Plant response rating, Russian Thistle” value [9, 19] was 25, the “Plant response rating, Russian Thistle” value [9, 20] was 75 and the “Barley, Spring plant response rating” value [10, 14] was 5. For the same compound, the “Plant response rating, Barley, Spring” value [10, 15] was 10, the “Plant response rating, Barley, Spring” value [10, 16] was 15 and the “Plant response rating (scale of 0 to 100), Barley, Spring” value ([10]; Preemergence, 31 g ai/ha) was 0. For the same compound, the “Plant response rating, Barley, Spring” value [10, 17] was 0, the “Plant response rating, Barley, Spring” value [10, 18] was 0 and the “Plant response rating, Barley, Spring” value [10, 19] was 60. For the same compound, the “Plant response rating, Barley, Spring” value [10, 20] was 5, the “Kochia plant response rating” value [11, 14] was 80 and the “Plant response rating, Kochia” value [11, 15] was 100. For the same compound, the “Plant response rating, Kochia” value [11, 16] was 100, the “Plant response rating (scale of 0 to 100), Kochia” value ([11]; Preemergence, 31 g ai/ha) was 10 and the “Plant response rating, Kochia” value [11, 17] was 15. The “Plant response rating, Kochia” value [11, 18] was 10, the “Plant response rating, Kochia” value [11, 19] was 40 and the “Plant response rating, Kochia” value [11, 20] was 95. For the same compound, the “Ryegrass, Italian plant response rating” value [12, 14] was 95, the “Plant response rating, Ryegrass, Italian” value [12, 15] was 95 and the “Plant response rating, Ryegrass, Italian” value [12, 16] was 100. For the same compound, the “Plant response rating (scale of 0 to 100), Ryegrass, Italian” value ([12]; Preemergence, 31 g ai/ha) was 55, the “Plant response rating, Ryegrass, Italian” value [12, 17] was 75 and the “Plant response rating, Ryegrass, Italian” value [12, 18] was 100. The “Plant response rating, Ryegrass, Italian” value [12, 19] was 90, the “Plant response rating, Ryegrass, Italian” value [12, 20] was 95 and the “Buckwheat, Wild plant response rating” value [13, 14] was 95. The “Plant response rating, Buckwheat, Wild” value [13, 15] was 100, the “Plant response rating, Buckwheat, Wild” value [13, 16] was 100 and the “Plant response rating (scale of 0 to 100), Buckwheat, Wild” value ([13]; Preemergence, 31 g ai/ha) was 0. For the same compound, the “Plant response rating, Buckwheat, Wild” value [13, 17] was 0, the “Plant response rating, Buckwheat, Wild” value [13, 18] was 15 and the “Plant response rating, Buckwheat, Wild” value [13, 19] was 10. The “Plant response rating, Buckwheat, Wild” value [13, 20] was 100.
